Patent US20240358847A1, “TROP2 BINDERS AND CONJUGATES THEREOF” (MERCK SHARP & DOHME LLC, priority 2023, published 2024)

Tests used:
BxPC-3 cells = test: On-Cell ELISA binding, BxPC3 cells (TROP2 high); assay type: cell-based, human; design: AUC (BxPC-3): unit not given beside the values; details: for EC50: On-Cell ELISA, TROP2 high cells; for ΔAUC: AUC (BxPC-3) minus AUC (MDA-MB-231-KWL); for AUC (BxPC-3): area under On-Cell ELISA binding curve; for ΔAUC/AUC (BxPC-3): differential BxPC3 vs MDA-MB-231-KWL
Protocol: (§1) Cell lines expressing TROP2.
(§2) Cells were plated in duplicate onto 96-well plates, and primary antibody was diluted in cell culture medium with a starting concentration of 30 μg/mL (200 nM) with a dilution factor of 1:5. After 3× wash, secondary antibody was added for 1 hour at 1 ug/ml, washed three times and absorbance was measured at 450 nm. Data was plotted and analyzed. EC50 ([…]) was measured along with area under the curve (AUC) for each cell line.

MDA-MB-231-KWL cells = test: On-Cell ELISA binding, MDA-MB-231-KWL cells (TROP2 low); assay type: cell-based; design: AUC (MDA-MB-231-KWL): unit not given beside the values; details: for EC50: read-out: MDA-MB-231-KWL EC50, On-Cell ELISA, TROP2 low cells; for AUC (MDA-MB-231-KWL): area under On-Cell ELISA binding curve
Protocol: as §1, §2

Row | Substance | EC50 (BxPC-3 cells) [nM] | EC50 (MDA-MB-231-KWL cells) [nM] | other results
1 | mAb_Lm_H91Y_HC: Sacituzumab LC H91Y mutein, Sacituzumab HC | 3.56 |  | 
2 | mAb_Lm_Y53P_HC: Sacituzumab LC Y53P mutein, Sacituzumab HC | 0.218 | 0.629 | 
3 | mAb_LC_Hm_N31P: Sacituzumab HC N31P mutein, Sacituzumab LC | 0.369 | 1.16 | 
4 | mAb_Lm_Y92E_HC: Sacituzumab LC Y92E mutein, Sacituzumab HC | 6.95 |  | 
5 | mAb_LC_Hm_F29G: Sacituzumab HC F29G mutein, Sacituzumab LC | 0.32 | 0.448 | 
6 | mAb_LC_Hm_S103T: Sacituzumab HC S103T mutein, Sacituzumab LC |  |  | AUC (MDA-MB-231-KWL) (MDA-MB-231-KWL cells): 33.66; ΔAUC (BxPC-3 cells): 171.04; AUC (BxPC-3) (BxPC-3 cells): 204.7; ΔAUC/AUC (BxPC-3) (BxPC-3 cells): 0.538
7 | mAb_Lm_V29R_HC: Sacituzumab LC V29R mutein, Sacituzumab HC | 0.285 |  | 
8 | mAb_LC_Hm_F108S: Sacituzumab HC F108S mutein, Sacituzumab LC | 0.321 | 0.651 | 
9 | mAb_LC_Hm_Y107N: Sacituzumab HC Y107N mutein, Sacituzumab LC | 0.715 | 1.88 | 
10 | mAb_LC_Hm_W106L: Sacituzumab HC W106L mutein, Sacituzumab LC | 0.326 |  | 
11 | mAb_Lm_A32Q_HC: Sacituzumab LC A32Q mutein, Sacituzumab HC | 18.4 |  | 
12 | mAb_Lm_Y92N_HC: Sacituzumab LC Y92N mutein, Sacituzumab HC | 0.839 |  | 
13 | mAb_Lm_D28H_HC: Sacituzumab LC D28H mutein, Sacituzumab HC | 0.159 | 0.136 | 
14 | mAb_LC_Hm_W106H: Sacituzumab HC W106H mutein, Sacituzumab LC | 1.16 |  | AUC (MDA-MB-231-KWL) (MDA-MB-231-KWL cells): 22.73; ΔAUC (BxPC-3 cells): 192.47; AUC (BxPC-3) (BxPC-3 cells): 215.2; ΔAUC/AUC (BxPC-3) (BxPC-3 cells): 0.605
15 | mAb_Lm_Y92A_HC: Sacituzumab LC Y92A mutein, Sacituzumab HC | 9.2 |  | 
16 | mAb_LC_Hm_F101E: Sacituzumab HC F101E mutein, Sacituzumab LC | 0.482 | 2.69 | 
17 | mAb_Lm_I93G_HC: Sacituzumab LC I93G mutein, Sacituzumab HC | 0.182 | 0.221 | 
18 | mAb_Lm_Y53V_HC: Sacituzumab LC Y53V mutein, Sacituzumab HC | 0.225 | 0.343 | 
19 | mAb_Lm_A32P_HC: Sacituzumab LC A32P mutein, Sacituzumab HC | 0.922 |  | 

Row | Substance | EC50 (BxPC-3 cells) [nM] | EC50 (MDA-MB-231-KWL cells) [nM] | other results
20 | mAb_Lm_Y53N_HC: Sacituzumab LC Y53N mutein, Sacituzumab HC | 0.225 | 0.843 | 
21 | mAb_Lm_Y53D_HC: Sacituzumab LC Y53D mutein, Sacituzumab HC; HC SEQ ID NO: 11, LC SEQ ID NO: 13 | 0.238 | 4.89 | 
22 | mAb_LC_Hm_W106A: Sacituzumab HC W106A mutein, Sacituzumab LC | 1.68 |  | 
23 | mAb_Lm_S50T_HC: Sacituzumab LC S50T mutein, Sacituzumab HC | 0.222 | 0.568 | 
24 | mAb_LC_Hm_G33I: Sacituzumab HC G33I mutein, Sacituzumab LC | 0.217 | 0.768 | 
25 | mAb_Lm_Y53S_HC: Sacituzumab LC Y53S mutein, Sacituzumab HC | 0.28 | 0.304 | 
26 | mAb_Lm_S50L_HC: Sacituzumab LC S50L mutein, Sacituzumab HC | 23.8 |  | 
27 | mAb_LC_Hm_Y105S: Sacituzumab HC Y105S mutein, Sacituzumab LC | 0.312 |  | 
28 | mAb_Lm_Y53R_HC: Sacituzumab LC Y53R mutein, Sacituzumab HC | 0.357 | 0.546 | 
29 | mAb_LC_Hm_F108Q: Sacituzumab HC F108Q mutein, Sacituzumab LC | 0.316 | 0.365 | 
30 | mAb_Lm_T94F_HC: Sacituzumab LC T94F mutein, Sacituzumab HC | 0.233 | 0.374 | 
31 | mAb_LC_Hm_S104D: Sacituzumab HC S104D mutein, Sacituzumab LC | 0.214 |  | 
32 | mAb_LC_Hm_F101T: Sacituzumab HC F101T mutein, Sacituzumab LC | 0.336 | 0.871 | 
33 | mAb_Lm_H91K_HC: Sacituzumab LC H91K mutein, Sacituzumab HC | 0.899 | 1.96 | 
34 | mAb_LC_Hm_Y32E: Sacituzumab HC Y32E mutein, Sacituzumab LC | 0.416 | 1.58 | 
35 | mAb_LC_Hm_F108T: Sacituzumab HC F108T mutein, Sacituzumab LC | 0.681 | 1.2 | 
36 | mAb_Lm_Q89V_HC: Sacituzumab LC Q89V mutein, Sacituzumab HC | 1.68 | 8.46 | 
37 | mAb_Lm_S30R_HC: Sacituzumab LC S30R mutein, Sacituzumab HC | 0.697 |  | 
38 | mAb_LC_Hm_G33S: Sacituzumab HC G33S mutein, Sacituzumab LC | 2.24 |  | 
